For experiment [1], the target named is HEK-293 cells transfected with dox-inducible human wild type FGFR1 (Homo sapiens (Human), UniProt P11362). The experiment in a line: FGFR1 pERK cell assay. Type of experiment: cell-based. As to conditions: HEK-293 dox-inducible FGFR1, 1 hour compound, 100 ng/ml FGF-acidic; maximum concentration 5 μM. Summed up:
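In HEK-293 cells with dox-induced human wild-type FGFR1, compounds (1:3 dilutions, top 5 μM final) were applied 1 h at 37°C before 5 min stimulation with 100 ng/ml FGF-acidic. Phospho-ERK1/2 measured by MSD sandwich immunoassay; IC50 from 4-parameter fit of POC versus vehicle and control compound.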

The target in experiment [2] is HEK-293 cells transfected with dox-inducible human wild type FGFR3 (Homo sapiens (Human), UniProt P22607). The experiment in a line: FGFR3 pERK cell assay. The following applies: HEK-293 dox-inducible FGFR3, 1 hour compound, 100 ng/ml FGF-acidic; maximum concentration 5 μM. Format: cell-based. An outline of the steps:
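Doxycycline-induced cells preincubated 1 h at 37 °C with compound (1:3 dilutions, top 5 μM final), then stimulated 5 min with 100 ng/ml FGF-acidic. Lysate phospho-ERK1/2 measured by MSD sandwich assay; IC50 at 50 POC from 4-parameter fit, normalised to no-compound and control-compound wells.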

The target in experiment [3] is recombinant human FGFR2 cytoplasmic domain (amino acids 403-822) (Homo sapiens (Human), UniProt P21802). The experiment in a line: FGFR2 enzyme activity assay (LanthaScreen TR-FRET). Format: biochemical. The following applies: 15 μM ATP, 20 min incubation at 22° C., average of multiple determinations if made, read-out: FGFR2 Enz FRET IC50. Summed up: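 His-tagged FGFR2 cytoplasmic domain ([…]) with 100 nM Alexa Fluor 647-poly-GT peptide and 15 μM ATP in HEPES/MgCl2/Triton buffer, pH 7.5, 2% DMSO, 20 min at 22 °C. EDTA-quenched, Eu-PY20 antibody added, TR-FRET read after 60 min.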
Sequence of recombinant human FGFR2 cytoplasmic domain (amino acids 403-822) (P21802 402-821): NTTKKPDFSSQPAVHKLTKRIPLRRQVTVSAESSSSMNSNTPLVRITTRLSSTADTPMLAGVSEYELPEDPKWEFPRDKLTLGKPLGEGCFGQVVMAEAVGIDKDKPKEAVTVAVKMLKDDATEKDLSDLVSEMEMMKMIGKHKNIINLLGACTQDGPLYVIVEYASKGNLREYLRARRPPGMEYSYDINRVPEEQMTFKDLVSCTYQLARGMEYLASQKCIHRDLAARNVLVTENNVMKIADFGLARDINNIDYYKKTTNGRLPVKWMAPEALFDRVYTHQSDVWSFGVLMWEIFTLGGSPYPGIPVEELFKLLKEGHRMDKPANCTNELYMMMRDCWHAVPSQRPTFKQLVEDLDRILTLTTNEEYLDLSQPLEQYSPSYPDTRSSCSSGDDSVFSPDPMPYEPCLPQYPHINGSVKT

The target in experiment [4] is dephosphorylated FGFR1 (SEQ ID NO: 1, amino acids 458 to 765) (Homo sapiens (Human), UniProt P11362). The experiment in a line: FGFR enzyme binding assay (HTRF tracer displacement), FGFR1. The following applies: 5 nM dephosphorylated FGFR1, average of multiple determinations if made. Summed up:
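Compounds were tested for displacement of a tracer from human FGFR kinase in a time-resolved FRET binding format. After 60 minutes at 22° C, signal was read at two wavelengths and converted to percent of control, normalised between untreated wells and 1 μM reference inhibitor.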

For experiment [5], the target named is FGFR1 (SEQ ID NO: 1, amino acids 458-765) (Homo sapiens (Human), UniProt P11362). The experiment in a line: LC/MS FGFR1 kobs assay (covalent protein modification). Type of experiment: binding. The following applies: 500 nM FGFR1, 3 μM compound. Summed up: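 Covalent labeling of FGFR1 kinase domain (aa 458-765) tracked over time by intact-protein LC/MS after formic acid quench. kobs derived by fitting DMSO-normalized percent unmodified FGFR1 to an exponential decay model.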
Sequence of FGFR1 (SEQ ID NO: 1, amino acids 458-765) (P11362 458-765): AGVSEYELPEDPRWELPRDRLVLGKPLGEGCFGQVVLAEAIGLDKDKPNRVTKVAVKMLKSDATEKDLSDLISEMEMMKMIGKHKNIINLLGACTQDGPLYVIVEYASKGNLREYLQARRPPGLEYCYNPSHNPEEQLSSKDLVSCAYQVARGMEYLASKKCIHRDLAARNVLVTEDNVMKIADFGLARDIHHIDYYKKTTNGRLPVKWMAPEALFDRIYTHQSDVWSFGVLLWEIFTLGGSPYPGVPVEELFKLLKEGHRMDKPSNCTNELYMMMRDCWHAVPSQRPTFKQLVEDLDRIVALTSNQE

These results are taken from patent US12180207B2 (ARRAY BIOPHARMA INC., priority 2018, dated 2024).

Usually IC50 stands for the concentration that inhibits the measured activity by half.

The structures appear in SMILES notation.

Sequence of dephosphorylated FGFR1 (SEQ ID NO: 1, amino acids 458 to 765) (P11362 458-765): as above
Sequence of HEK-293 cells transfected with dox-inducible human wild type FGFR3 (P22607 23-806): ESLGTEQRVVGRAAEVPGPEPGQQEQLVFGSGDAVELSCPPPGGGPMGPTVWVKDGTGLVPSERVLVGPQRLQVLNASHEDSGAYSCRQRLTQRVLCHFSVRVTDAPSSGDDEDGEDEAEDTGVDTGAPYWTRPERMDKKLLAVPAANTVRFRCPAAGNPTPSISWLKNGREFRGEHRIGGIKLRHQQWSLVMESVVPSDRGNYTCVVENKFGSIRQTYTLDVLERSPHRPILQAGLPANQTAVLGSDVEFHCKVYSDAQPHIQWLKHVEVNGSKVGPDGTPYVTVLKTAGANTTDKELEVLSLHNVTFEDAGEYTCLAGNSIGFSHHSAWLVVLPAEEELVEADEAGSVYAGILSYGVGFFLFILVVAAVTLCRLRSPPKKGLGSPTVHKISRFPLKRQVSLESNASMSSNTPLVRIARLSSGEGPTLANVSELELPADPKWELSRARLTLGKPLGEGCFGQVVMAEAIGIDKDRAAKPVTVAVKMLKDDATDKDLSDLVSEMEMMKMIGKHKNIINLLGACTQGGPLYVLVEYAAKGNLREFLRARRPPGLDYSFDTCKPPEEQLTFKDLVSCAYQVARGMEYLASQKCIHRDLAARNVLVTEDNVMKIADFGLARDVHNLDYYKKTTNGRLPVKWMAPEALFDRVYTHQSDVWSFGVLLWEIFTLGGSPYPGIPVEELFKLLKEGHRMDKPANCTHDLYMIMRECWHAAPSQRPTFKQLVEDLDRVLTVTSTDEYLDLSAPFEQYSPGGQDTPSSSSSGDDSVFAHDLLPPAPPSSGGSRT
Sequence of HEK-293 cells transfected with dox-inducible human wild type FGFR1 (P11362 22-822): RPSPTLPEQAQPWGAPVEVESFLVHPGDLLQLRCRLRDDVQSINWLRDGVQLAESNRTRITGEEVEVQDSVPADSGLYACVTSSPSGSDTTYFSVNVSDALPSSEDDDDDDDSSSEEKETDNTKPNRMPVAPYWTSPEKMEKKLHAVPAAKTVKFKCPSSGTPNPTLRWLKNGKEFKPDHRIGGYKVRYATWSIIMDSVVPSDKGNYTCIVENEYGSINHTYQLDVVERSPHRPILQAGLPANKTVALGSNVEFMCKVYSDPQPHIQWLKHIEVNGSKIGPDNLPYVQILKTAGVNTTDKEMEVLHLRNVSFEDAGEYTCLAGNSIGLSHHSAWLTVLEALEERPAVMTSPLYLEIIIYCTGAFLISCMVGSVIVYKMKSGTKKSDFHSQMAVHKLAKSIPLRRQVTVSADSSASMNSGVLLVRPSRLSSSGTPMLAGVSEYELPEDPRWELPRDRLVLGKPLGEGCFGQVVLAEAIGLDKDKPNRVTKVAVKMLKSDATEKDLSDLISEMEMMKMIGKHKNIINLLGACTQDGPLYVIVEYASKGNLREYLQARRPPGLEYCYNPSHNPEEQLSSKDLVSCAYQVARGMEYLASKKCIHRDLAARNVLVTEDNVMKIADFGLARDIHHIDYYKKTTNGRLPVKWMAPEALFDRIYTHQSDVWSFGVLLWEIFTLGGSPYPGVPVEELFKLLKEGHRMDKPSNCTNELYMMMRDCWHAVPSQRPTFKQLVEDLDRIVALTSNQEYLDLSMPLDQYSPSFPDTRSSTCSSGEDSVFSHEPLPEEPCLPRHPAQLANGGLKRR

Regarding `C=CC(=O)N1CC(C(=O)N2CC3(C2)CN(c2ccc(-c4cc(OC)c5c(C#N)cnn5c4)cn2)C3)C1` [Example 104, 6-(6-(6-(1-acryloylazetidine-3-carbonyl)-2,6-diazaspiro[3.3]heptan-2-yl)pyridin-3-yl)-4-methoxypyrazolo[1,5-a]pyridine-3-carbonitrile], the IC50 in experiment [1] stood at 1110 nM; in experiment [2], 146 nM; in experiment [3] it was 20 nM; in experiment [4], 72 nM. In experiment [5], the “FGFR1 Enz kobs” value was 0.00386 min⁻¹.

For `COC/C=C/C(=O)N1CC(F)(C(=O)N2CCC(n3ncc(-c4cc(OC)c5c(C#N)cnn5c4)c3C)CC2)C1` [Example 154, (E)-6-(1-(1-(3-fluoro-1-(4-methoxybut-2-enoyl)azetidine-3-carbonyl)piperidin-4-yl)-5-methyl-1H-pyrazol-4-yl)-4-methoxypyrazolo [1,5-a]pyridine-3-carbonitrile], the half-inhibitory concentration (IC50) in experiment [1] is 2630 nM; in experiment [2] it was 122 nM; in experiment [3], 16 nM; in experiment [4] it was 430 nM. The “FGFR1 Enz kobs” value in experiment [5] amounted to 0.00081 min⁻¹.

Regarding `C=CC(=O)N1CC(C(=O)N2CCC3(CC2)CN(c2ccc(-c4cc(OC)c5c(C#N)cnn5c4)cn2)C3)C1` [Example 102, 6-(6-(7-(1-acryloylazetidine-3-carbonyl)-2,7-diazaspiro[3.5]nonan-2-yl)pyridin-3-yl)-4-methoxypyrazolo[1,5-a]pyridine-3-carbonitrile], the IC50 in experiment [1] turned out to be 239 nM; in experiment [2], 44 nM; in experiment [3] it was 11 nM; in experiment [4], 44 nM. Further, the “FGFR1 Enz kobs” value in experiment [5] is 0.00313 min⁻¹.

Take `C=CS(=O)(=O)N1CCC(C(=O)N2CCC(n3cc(-c4cc(OC)c5c(C#N)cnn5c4)cn3)CC2)CC1` [Example 186, 4-methoxy-6-(1-(1-(1-(vinylsulfonyl)piperi-dine-4-carbonyl)piperidin-4-yl)-1H-pyrazol-4-yl)pyrazolo[1,5-a]pyridine-3-carbonitrile]: the IC50 was 35 nM in experiment [1], 6 nM in experiment [2], 8 nM in experiment [3] and 14 nM in experiment [4]. In addition, the “FGFR1 Enz kobs” value in experiment [5] turned out to be 0.01483 min⁻¹.

For the compound `C=CC(=O)N1CC(C(=O)N2CCN(c3ccc(-c4cc(OC)c5c(C#N)cnn5c4)cn3)CC2)C1` [Example 111, 6-(6-(4-(1-acryloylazetidine-3-carbonyl)piperazin-1-yl)pyridin-3-yl)-4-methoxypyrazolo[1,5-a]pyridine-3-carbonitrile], the IC50 worked out at 288 nM in experiment [1], 34 nM in experiment [2], 4 nM in experiment [3] and 144 nM in experiment [4]. Further, in experiment [5], the “FGFR1 Enz kobs” value is 0.00263 min⁻¹.

As to `COc1cc(-c2cnn(C3CCN(CC4CN(C(=O)/C=C/CN(C)C)C4)CC3)c2)cn2ncc(C#N)c12` [Example 146, (E)-6-(1-(1-((1-(4-(dimethylamino)but-2-enoyl)azetidin-3-yl)methyl)piperidin-4-yl)-1H-pyrazol-4-yl)-4-methoxypyrazolo [1,5-a]pyridine-3-carbonitrile], the IC50 in experiment [1] worked out at 496 nM; in experiment [2] it was 96 nM; in experiment [3], 2 nM; in experiment [4], 51 nM. In experiment [5], the “FGFR1 Enz kobs” value was 0.00306 min⁻¹.

Consider `COc1cc(-c2cnn(C3CCN(C(=O)C4(F)CN(C(=O)/C=C/CN(C)C)C4)CC3)c2C)cn2ncc(Cl)c12` [Example 170, (E)-1-(3-(4-(4-(3-chloro-4-methoxypyrazolo [1,5-a]pyridin-6-yl)-5-methyl-1H-pyrazol-1-yl)piperidine-1-carbonyl)-3-fluoroazetidin-1-yl)-4-(dimethylamino)but-2-en-1-one], for which the IC50 in experiment [1] was found to be 915 nM; in experiment [2] it was 55 nM; in experiment [3] it was 239 nM; in experiment [4], 488 nM. Besides, the “FGFR1 Enz kobs” value in experiment [5] worked out at 0.00774 min⁻¹.

`COc1cc(-c2nnn(C3CCN(C(=O)C4(F)CN(C(=O)/C=C/CN(C)C)C4)CC3)c2C)cn2ncc(C#N)c12` [Example 164, (E)-6-(1-(1-(1-(4-(dimethylamino)but-2-enoyl)-3-fluoroazetidine-3-carbonyl)piperidin-4-yl)-5-methyl-1H-1,2,3-triazol-4-yl)-4-methoxypyrazolo [1,5-a]pyridine-3-carbonitrile]: the IC50 is at least 5000 nM in experiment [1], 188 nM in experiment [2], 15 nM in experiment [3] and 350 nM in experiment [4]. In addition, the “FGFR1 Enz kobs” value in experiment [5] stood at 0.00713 min⁻¹.

Regarding `C=CC(=O)N1CC(CN2CCC(n3ncc(-c4cc(OC)c5c(Cl)cnn5c4)c3C)CC2)(OC)C1` [Example 119, 1-(3-((4-(4-(3-chloro-4-methoxypyrazolo[1,5-a]pyridin-6-yl)-5-methyl-1H-pyrazol-1-yl)piperidin-1-yl)methyl)-3-methoxyazetidin-1-yl)prop-2-en-1-one], the IC50 in experiment [1] is 591 nM; in experiment [2], 50 nM; in experiment [3] it was 219 nM; in experiment [4], 565 nM. The “FGFR1 Enz kobs” value in experiment [5] turned out to be 0.00359 min⁻¹.

For `C=CC(=O)N1CC(CN2C[C@H]3C[C@@H]2CN3c2ccc(-c3cc(OC)c4c(C#N)cnn4c3)cn2)C1` [Example 108, 6-(6-((1R,4R)-5-((1-acryloylazetidin-3-yl)methyl)-2,5-diazabicyclo[2.2.1]heptan-2-yl)pyridin-3-yl)-4-methoxypyrazolo[1,5-a]pyridine-3-carbonitrile], the IC50 is 116 nM in experiment [1], 47 nM in experiment [2], 7 nM in experiment [3] and 55 nM in experiment [4]. Besides, the “FGFR1 Enz kobs” value in experiment [5] was determined as 0.00291 min⁻¹.

Turning to `C=CC(=O)N1CC(C(=O)N2CCN(c3cnc(-c4cc(OC)c5c(C#N)cnn5c4)cn3)CC2)C1` [Example 116, 6-(5-(4-(1-acryloylazetidine-3-carbonyl)piperazin-1-yl)pyrazin-2-yl)-4-methoxypyrazolo[1,5-a]pyridine-3-carbonitrile], the IC50 in experiment [1] is 1230 nM; in experiment [2], 164 nM; in experiment [3], 19 nM; in experiment [4], 141 nM. Also, the “FGFR1 Enz kobs” value in experiment [5] was determined as 0.00277 min⁻¹.

For the compound `COc1cc(-c2cnn(C3CCN(C(=O)C4(F)CN(C(=O)/C=C/C(F)(F)F)C4)CC3)c2C)cn2ncc(C#N)c12` [Example 155, (E)-6-(1-(1-(3-fluoro-1-(4,4,4-trifluorobut-2-enoyl)azetidine-3-carbonyl)piperidin-4-yl)-5-methyl-1H-pyrazol-4-yl)-4-methoxypyrazolo [1,5-a]pyridine-3-carbonitrile], the half-inhibitory concentration (IC50) in experiment [1] is 157 nM; in experiment [2], 31 nM; in experiment [3] it was 114 nM; in experiment [4], 426 nM. The “FGFR1 Enz kobs” value in experiment [5] was found to be 0.03227 min⁻¹.

With `COc1cc(-c2cnn(C3CCN(C(=O)C4CN(C(=O)/C=C/CN5CC[C@H](F)C5)C4)CC3)c2)cn2ncc(C#N)c12` [Example 182, (S,E)-6-(1-(1-(1-(4-(3-fluoropyrrolidin-1-yl)but-2-enoyl)azetidine-3-carbonyl)piperidin-4-yl)-1H-pyrazol-4-yl)-4-methoxypyrazolo[1,5-a]pyridine-3-carbonitrile], the half-inhibitory concentration (IC50) in experiment [1] was found to be 3630 nM; in experiment [2], 348 nM; in experiment [3] it was 3 nM; in experiment [4], 40 nM. Moreover, in experiment [5], the “FGFR1 Enz kobs” value stood at 0.00202 min⁻¹.
